Our source for the XC50 values is ChEMBL document CHEMBL1157539, “Thousands of chemical starting points for antimalarial lead identification” (Nature, 2010).

In the assay the test system is Plasmodium falciparum. As to the kind of experiment: GSK_TCMDC: Inhibition of Plasmodium falciparum 3D7 in whole erythrocytes, using parasite LDH activity as an index of growth. The assay is classed as functional, organism-based. The note with it: Plasmodium falciparum, 3D7.
The compound `O=C(N/N=C/c1nc2ccccc2[nH]1)c1cccc([N+](=O)[O-])c1` had an XC50 of 628 nM. `Cc1cc(N/N=C/c2ccccc2[N+](=O)[O-])c2ccc(F)cc2n1` gave an XC50 of 350 nM. For the compound `CN1CCC(NCc2cccc(-c3ccc(S(=O)(=O)NCc4ccccc4)c(F)c3)c2)CC1`, the XC50 is 325 nM. In turn, `C=CCc1cccc(CN2CCC(c3cc(O)nc(-c4ccccn4)n3)CC2)c1O` had an XC50 of 1100 nM. With `Cc1cc(CNCCCCCNCc2cccc([N+](=O)[O-])c2)ccc1O`, the XC50 is 784 nM.

`Cc1cccc2nc(-c3cccc(-c4cccc(NC(=O)c5cnccc5C(F)(F)F)c4)c3)[nH]c12` gave an XC50 of 659 nM. The value for `COc1ccc(NC(=O)c2ccc(NC(=O)c3ccc(Cl)cc3)cc2)cc1N1CCN(C)CC1` was 849 nM. In turn, `CC(NC(=O)c1ccc(O)c(-c2ccc(Cl)c(Cl)c2)c1)C(=O)NCCN1CCCC1` (stereo unspecified) showed an XC50 of 759 nM. For the compound `O=C(Nc1ccc(-c2nc3ccccc3[nH]2)cc1)C1CCCN(C2CCC2)C1` (stereo unspecified), the XC50 amounted to 1350 nM.

`COc1ccc(CNCCc2cccs2)cc1-c1ccc(S(=O)(=O)NCCN2CCCC2)cc1`: the XC50 is 655 nM. The value for `C=C(F)c1sc(CNCCCNc2nc3ccccc3[nH]2)c(C)c1Br` was 367 nM. Take `CN1C(=C2SC(=Nc3ccc4ncccc4c3)N(Cc3ccccc3)C2=O)Sc2ccc(Cl)cc21`: the XC50 was found to be 1060 nM. With `N#Cc1ccc2c(c1)CCN(CCC1CCC(NC(=O)/C=C/c3ccc4ccccc4c3)CC1)CC2` (stereo unspecified), the XC50 was determined as 724 nM. The result for `O=S(=O)(NCCN1CCCC1)c1ccc(-c2ccc(CNCc3ccccc3)cc2)cc1` reads 775 nM; that for `CC1(C)CCCN(c2ncc(-c3cccc(CNCc4ccccc4O)c3)cn2)C1`, 886 nM; that for `Cc1[nH]c2ccc(O)cc2c1C1CCN(CC2CCC(NC(=O)/C=C/c3c(Cl)cccc3Cl)CC2)CC1` (stereo unspecified), 817 nM. The value for `O=C(Nc1ccc(C(=O)N(Cc2ccc3c(c2)OCO3)C2CCCC2)cc1)c1cccs1` was 650 nM. Take `CCCc1cc(OC)c(CC2c3cc(O)c(Cl)cc3CCN2C)cc1OC` (stereo unspecified): the XC50 turned out to be 575 nM. `CCc1cn2c3c(cc(C(=O)N[C@@H](Cc4ccccc4)[C@H](O)CNCc4ccc(C)cc4)cc13)N(C)S(=O)(=O)CC2` came in with an XC50 of 547 nM. The result for `COc1cccc(-c2cc(C(=O)Nc3cc(Oc4ccc(O)cc4)cc([N+](=O)[O-])c3)on2)c1` reads 1050 nM; that for `COc1ccc(NC(=O)[C@H](CC(C)C)Nc2cc(C)nc(NCCOc3ccccc3)n2)cc1`, 800 nM. Consider `CCCCCCNCCOc1ccc(-c2nc(-c3ccccc3)c(-c3ccccc3)[nH]2)cc1`, for which the XC50 is 669 nM. For the compound `Cc1cc(N[C@@H](CC(C)C)C(=O)NCCOc2ccccc2)nc(NCCc2ccccc2)n1`, the XC50 is 1510 nM. In turn, `CC(C(=O)OCCOCn1cnc2c(=O)[nH]c(N)nc21)N(C)C(=O)OC(C)(C)C` (stereo unspecified) yielded an XC50 of 1000 nM. Compound `Cc1c(C)n(C2CCCC2)c2ncnc(OC3CCN(CC(=O)NC4CC4)CC3)c12` came in with an XC50 of 790 nM. The value for `O=C(Nc1ccc(C(F)(F)F)cc1)c1cccc(S(=O)(=O)NC2CCN(CC3CCCCC3)C2)c1` (stereo unspecified) was 690 nM; that for `CCCc1cn2c3c(cc(C(=O)N[C@@H](Cc4ccccc4)[C@H](O)CNC4CCOCC4)cc13)N(CC)S(=O)(=O)CC2` was 98.8 nM. `COc1cccc(CCNC(C)Cc2ccc(OCCCCOc3ccccc3)cc2)c1` (stereo unspecified) came in with an XC50 of 741 nM. The value for `COc1ccc2[nH]cc(C3CCN(CCC4CCN(C(=O)/C=C/c5ccc(Cl)c(Cl)c5)CC4)CC3)c2c1` was 862 nM; that for `Fc1ccc(Nc2ccnc3cc(-c4ccc(CNCCN5CCOCC5)o4)ccc23)c(Cl)c1` was 186 nM.

For `CN(C)CCOc1ccc(-c2cc(-c3ccncc3)c(-c3ccc(Cl)c(O)c3)o2)cc1`, the XC50 is 214 nM. `Cc1cccc2nc(-c3ccc(-c4ccc(CN5CCCC5CN)cc4)cc3)[nH]c12` (stereo unspecified): the XC50 was found to be 815 nM. `FC(F)(F)COc1c(CNCCCCCCNCc2ccc3ccccc3c2OCC(F)(F)F)ccc2ccccc12` yielded an XC50 of 761 nM.

With `Cc1cccc2nc(-c3cccc(-c4cccc(NC(=O)Nc5ccsc5)c4)c3)[nH]c12`, the XC50 turned out to be 170 nM.

For `O=C(N[C@@H](Cc1ccccc1)[C@H](O)CNCCC(F)(F)F)c1cccc(CCC2CC2)c1`, the XC50 came to 1020 nM. In the case of `CC(=O)Nc1ccc(C(=O)Nc2ccc(-c3cccc(-c4nc5cccc(C)c5[nH]4)c3)cc2)cn1`, the XC50 turned out to be 265 nM. In turn, `Cc1cc(N[C@@H](Cc2ccccc2)C(=O)NCc2cccs2)nc(NCCc2ccc(F)cc2)n1` gave an XC50 of 854 nM. `CS(=O)(=O)Nc1cccc(-c2cnc3[nH]cc(-c4ccc(CN)cc4)c3c2)c1` returned an XC50 of 986 nM. The result for `Cc1cccc2nc(-c3ccc(-c4cccc(CNCCN5CCNCC5)c4)cc3)[nH]c12` reads 1230 nM; that for `COc1cc(CN2CCC(N3CCc4cc(NC(=O)c5cc(C)on5)ccc43)C2)ccc1F` (stereo unspecified), 607 nM. The result for `CCS(=O)(=O)c1ccc(-c2cnc3[nH]cc(-c4ccc(N)cc4)c3c2)cc1` reads 851 nM. On to `COc1ccc(-c2nc(-c3ccc([N+](=O)[O-])cc3)no2)cc1OC`, for which the XC50 worked out at 409 nM. Consider `CC[C@H](C)CNC(=O)c1ccnc(-c2ccc(CNC3Cc4ccccc4C3)cc2)c1`, for which the XC50 was found to be 569 nM. The compound `CCCc1ccc(S(=O)(=O)NC2CCN(c3ccnc(Nc4ccc(OC)cc4)n3)C2)cc1` (stereo unspecified) had an XC50 of 1190 nM.

Compound `COc1ccc(C)c(Nc2ccnc(Nc3ccc(-c4cnc[nH]4)cc3)n2)c1` displayed an XC50 of 1370 nM. `Cc1nc(-c2ccc(-c3ccc(NC(=O)c4coc5ccc(N6CC(C)N(C)C(C)C6)cc45)cc3)c(C)c2)no1` (stereo unspecified): the XC50 was 767 nM. The compound `COc1cc(Cc2cnc(N)nc2N)cc(OC)c1OCCNC(=O)[C@@H](N)CCC(=O)O` registered an XC50 of 843 nM. `COc1c(C2CCN(CCCCNC(=O)c3ccc(-c4ccc(C#N)cc4)cc3)CC2)cc(Cl)c2c1CCCC2` gave an XC50 of 776 nM.

The compound `COc1ccc2nccc([C@@H](O)CN3CCC(NC(=O)c4ccc(C5(C(F)(F)F)N=N5)cc4)CC3)c2c1` showed an XC50 of 931 nM. The compound `Cc1cccc2nc(-c3cccc(-c4ccc(CNCCc5ccncc5)cc4)c3)[nH]c12` returned an XC50 of 119 nM.

`CCOc1ccc(N2CCN(CCCCNC(=O)c3ccc(NC(=O)c4ccc(Cl)cc4)cc3)CC2)c(OCC)c1` came in with an XC50 of 567 nM.

As to `COc1ccc(CN2CCN(CCOC(c3ccc(F)cc3)c3ccc(F)cc3)CC2)c(O)c1`, the XC50 was found to be 733 nM. Compound `COc1ccc2c(=NN=Cc3ccccc3Cl)cc(C)[nH]c2c1` gave an XC50 of 373 nM. The compound `O=C(CCc1cccc(O)c1)NCC(NCCCNc1cc(=O)c2ccccc2[nH]1)c1cc(Br)cc(Br)c1` (stereo unspecified) came in with an XC50 of 1170 nM. The result for `COc1ccccc1NS(=O)(=O)c1cc(C(=O)Nc2ccc(N3CCOCC3)c(S(=O)(=O)Nc3ccccc3Cl)c2)ccc1Cl` reads 832 nM. Compound `CCCCCCN1CCC(NCc2cccc(C(F)(F)F)c2)CC1` registered an XC50 of 246 nM. The value for `COc1ccc2c(NN=Cc3ccccc3Cl)ccnc2c1` was 622 nM; that for `CCNC(=O)Nc1cccc(-c2cccc(-c3nc4cc(C(F)(F)F)ccc4[nH]3)c2)c1` was 678 nM. In the case of `CC(=O)N(C)c1cccc(C(=O)Nc2cccc(-c3cccc(-c4nc5cccc(C)c5[nH]4)c3)c2)c1`, the XC50 came to 617 nM.

The compound `CCN(c1ccc(F)cc1)S(=O)(=O)c1cc(Br)cc2c1N(C(=O)C1CC1)CC2` displayed an XC50 of 943 nM. The value for `O=c1n(CC2CCCCC2)c2cc(Cl)cc(OCCNc3ccncc3)c2n1CC1CCCCC1` was 593 nM; that for `O=c1cc(NCCCNC2CCOc3c(Cl)cccc32)[nH]c2ccccc12` (stereo unspecified) was 832 nM; that for `CCN(CC)Cc1cc(NC(=O)c2ccccc2O)ccc1Oc1ccc(Cl)cc1` was 827 nM. Regarding `CCN(C(=O)CSc1cc(C)c2cc(C)cc(C)c2n1)C1CCS(=O)(=O)C1` (stereo unspecified), the XC50 was 667 nM. The value for `Cc1cc(C(F)(F)F)cc(-n2ncc(-c3ccc(C(=O)NCc4ccccc4N)cc3)c2N)n1` was 453 nM; that for `COc1cc2nc(NCCCO)nc(Nc3ccc(Oc4ccccc4)cc3)c2cc1OC` was 145 nM; that for `COc1ccc(-c2c3c(=O)n(C)c(=O)n(C)c3c3nnc4ccccc4n23)cc1` was 991 nM. In turn, `O=c1c2ccccc2[nH]c2nc3ccccc3c(Nc3ccccc3)c12` had an XC50 of 141 nM. Take `CCOC(=O)Nc1cc(-c2csc(N=C(N)N)n2)cc([N+](=O)[O-])c1`: the XC50 came out at 816 nM. The compound `CC1(C)NC(N)=NC(=N)N1OCc1ccc(-c2ccccc2)cc1` yielded an XC50 of 3.2 nM. With `COc1ccc2[nH]ccc(=NN=Cc3ccc(F)cc3)c2c1`, the XC50 came out at 720 nM. Take `O=C(Nc1cccc(-c2nn3ccccc3c2-c2ccnc(Nc3ccccc3)n2)c1)c1cc(F)ccc1F`: the XC50 was 953 nM. On to `CNC(=O)C(NC(=O)c1ccccc1C(=O)OC)c1ccccc1` (stereo unspecified), for which the XC50 was 556 nM. `CCC(C)(C)C1CCc2[nH]c3ccccc3c(=O)c2C1` (stereo unspecified) had an XC50 of 384 nM. The compound `FC(F)(F)c1ccc2nccc(NCc3ccccc3)c2c1` had an XC50 of 1150 nM. `Cc1nnc2c(NC(=O)NC3CCCC3)cc3cc(-c4ccc(CN5CCN(C)CC5)cc4)ccc3n12`: the XC50 is 1020 nM. `CSc1ccc(CN2CCC(CNC(=O)c3cc(-c4ccccc4F)cs3)C2)cc1` (stereo unspecified) gave an XC50 of 1140 nM. `COc1c(C)cc(I)cc1CNCCCNc1cc(=O)c2ccccc2[nH]1` had an XC50 of 1280 nM. Turning to `CCOc1cc(C(=O)Nc2ccc(-c3nc4ccccc4[nH]3)cc2)cc(OCC)c1OCC`, the XC50 worked out at 234 nM.

`O=C(NC1CCN(Cc2ccsc2)CC1)c1ccc(-c2cccc(C(F)(F)F)c2)s1` returned an XC50 of 1440 nM. The result for `Cc1ccc(NC(=O)Nc2ccc(Cn3ncc(N4CCCNCC4)c(Cl)c3=O)cc2)cc1` reads 918 nM; that for `CNC(=O)C1Cc2c([nH]c3c(C)cccc23)C2(N1)C(=O)Nc1ccc(OC(F)(F)F)cc12` (stereo unspecified), 464 nM. The compound `CC(CO)(CO)NCc1cc2ccc3ccsc3c2c2ccccc12` returned an XC50 of 229 nM. Compound `CCOC(=O)c1c(C)n(-c2ccccc2)c2ccc(OC(=O)c3ccc(S(=O)(=O)N(CC)CC)cc3)cc12` gave an XC50 of 748 nM. As to `CCCCCCCC1CC(CC(=O)Nc2ccnc3ccc(OC)cc23)CN1` (stereo unspecified), the XC50 worked out at 511 nM. Take `CC(C)CC1(C(=O)OC(C)(C)C)CC(C(=O)OC(C)(C)C)C(c2cccs2)N1C(=O)c1ccc(C(C)(C)C)cc1` (stereo unspecified): the XC50 was determined as 137 nM.
